The results in this text go back to PubChem BioAssay AID1919014 (Molecular Pharmacology Branch, DTP, NCI, 2023).

Values joined by “and” are separate entries in the source; they are usually repeats but may differ in a detail not shown here. Equal values may be shown once.

In this experiment the test system is NCI-H1341 complex spheroids, percent test/control. The experiment is described as follows: Anticancer human tumor NCI-H1341 cell line growth inhibition [AhR].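 For all read-outs here: spheroids exposed to agents for seven days before readout.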 The note with it: for viability, T/C: stronger effect = lower value. The essentials: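 Complex tumor spheroids co-cultured with HUVEC and human MSC stroma; AhR antagonists tested in combination with standard-of-care and investigational agents. Top concentration at or near clinical Cmax (else 10 microM), half-log dilutions; growth expressed as percent test/control.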

Setting [1] is: curve of first compound, second compound 0.1 µM.
Where [2] appears, read: curve of first compound, second compound 0.316 µM.
[3] abbreviates: curve of first compound, second compound 1 µM.
[4] abbreviates: curve of first compound, second compound 3.16 µM.
[5] abbreviates: curve of first compound, second compound 10 µM.
Setting [6] is: second compound 0.1 µM, first compound 0.00949 µM.
The mark [7] stands for this setting: second compound 0.1 µM, first compound 0.03 µM.
Where [8] appears, read: second compound 0.1 µM, first compound 0.0949 µM.
The mark [9] stands for this setting: second compound 0.1 µM, first compound 0.3 µM.
Setting [10] is: second compound 0.1 µM, first compound 0.949 µM.
Where [11] appears, read: second compound 0.1 µM, first compound 3 µM.
Setting [12] is: second compound 0.316 µM, first compound 0.00949 µM.
Setting [13] is: second compound 0.316 µM, first compound 0.03 µM.
The mark [14] stands for this setting: second compound 0.316 µM, first compound 0.0949 µM.
The mark [15] stands for this setting: second compound 0.316 µM, first compound 0.3 µM.
Setting [16] is: second compound 0.316 µM, first compound 0.949 µM.
[17] abbreviates: second compound 0.316 µM, first compound 3 µM.
Setting [18] is: second compound 1 µM, first compound 0.00949 µM.
Setting [19] is: second compound 1 µM, first compound 0.03 µM.
[20] abbreviates: second compound 1 µM, first compound 0.0949 µM.
[21] abbreviates: second compound 1 µM, first compound 0.3 µM.
[22] abbreviates: second compound 1 µM, first compound 0.949 µM.
The mark [23] stands for this setting: second compound 1 µM, first compound 3 µM.
The mark [24] stands for this setting: second compound 3.16 µM, first compound 0.00949 µM.
[25] abbreviates: second compound 3.16 µM, first compound 0.03 µM.
[26] abbreviates: second compound 3.16 µM, first compound 0.0949 µM.
Where [27] appears, read: second compound 3.16 µM, first compound 0.3 µM.
Setting [28] is: second compound 3.16 µM, first compound 0.949 µM.
The mark [29] stands for this setting: second compound 3.16 µM, first compound 3 µM.
[30] abbreviates: second compound 10 µM, first compound 0.00949 µM.
Where [31] appears, read: second compound 10 µM, first compound 0.03 µM.
Where [32] appears, read: second compound 10 µM, first compound 0.0949 µM.
The mark [33] stands for this setting: second compound 10 µM, first compound 0.3 µM.
Setting [34] is: second compound 10 µM, first compound 0.949 µM.
The mark [35] stands for this setting: second compound 10 µM, first compound 3 µM.

Usually IC50 stands for the concentration at which inhibition is half-maximal. In general, viability, T/C refers to the ratio of treated to control. As for `CCN(c1cc(-c2ccc(CN3CCOCC3)cc2)cc(C(=O)NCc2c(C)cc(C)[nH]c2=O)c1C)C1CCOCC1` + Cc1ccccc1N=Nc1ccc(NC(=O)c2ccnn2C)c(C)c1, the IC50 is above 3000 nM under setting [1]; above 3000 nM under setting [2]; above 3000 nM under setting [3]; above 3000 nM under setting [4]; above 3000 nM under setting [5]. Further, the viability, T/C under setting [6] is 95.8%; the viability, T/C under setting [7] was 85.1%; the viability, T/C under setting [8] is 75.5%; the viability, T/C under setting [9] was 104%; the viability, T/C under setting [10] was 90.9%; the viability, T/C under setting [11] is 107%. Besides, the viability, T/C under setting [12] was 90.2%; the viability, T/C under setting [13] is 103%; the viability, T/C under setting [14] is 89.6%; the viability, T/C under setting [15] is 87.1%; the viability, T/C under setting [16] was 104%; the viability, T/C under setting [17] was 73.1%. Also, the viability, T/C under setting [18] is 91.6%; the viability, T/C under setting [19] is 102%; the viability, T/C under setting [20] was 94.7%; the viability, T/C under setting [21] is 90.6%; the viability, T/C under setting [22] is 79.8%; the viability, T/C under setting [23] was 100%. Moreover, the viability, T/C runs as follows: under setting [24], 75.2%; under setting [25], 75.1%; under setting [26], 70.6%; under setting [27], 71%; under setting [28], 73.3%; under setting [29], 60.6%. The viability, T/C is 54.9% under setting [30]; 45.6% under setting [31]; 54.6% under setting [32]; 52.2% under setting [33]; 49.8% under setting [34]; 66.5% under setting [35].
With `O=C(C=Cc1cccc(S(=O)(=O)Nc2ccccc2)c1)NO`, the viability, T/C is 91.7% and 96.1% and 95.8% (compound 0.0316 µM); 87.7% and 85.4% and 80.2% (compound 0.1 µM); 61.3% and 59% and 42.5% (compound 0.316 µM); 17% and 24% and 28% (compound 1 µM); 7.15% and 7.86% and 8.15% (compound 3.16 µM); 1.07% and 0.78% and 0.36% (compound 10 µM). Further, the IC50 (curve of compound) was 425 nM and 423 nM and 295 nM.
Take `O=C(C=Cn1cnc(-c2cc(C(F)(F)F)cc(C(F)(F)F)c2)n1)NNc1cnccn1` + CC(CO)NC(=O)c1cc(-c2ccc(Cl)cc2)nn(-c2cnn(C)c2)c1=O: the IC50 under setting [1] came out at 47.3 nM; the IC50 under setting [2] is 38.7 nM; the IC50 under setting [3] worked out at 53.4 nM; the IC50 under setting [4] is 39.2 nM; the IC50 under setting [5] amounted to 32.2 nM. In addition, the viability, T/C by setting is: under setting [6], 70.1%; under setting [7], 66%; under setting [8], 25.8%; under setting [9], 8.14%; under setting [10], 7.31%; under setting [11], 3.24%. Also, the viability, T/C is 81.5% under setting [12]; 56.4% under setting [13]; 26.9% under setting [14]; 8.82% under setting [15]; 4.72% under setting [16]; 3.56% under setting [17]. In addition, the viability, T/C is, setting by setting: under setting [18], 72.9%; under setting [19], 76.5%; under setting [20], 25.3%; under setting [21], 7.32%; under setting [22], 5.36%; under setting [23], 3.2%. Also, the viability, T/C was 70.9% under setting [24]; 56.6% under setting [25]; 27.3% under setting [26]; 7.55% under setting [27]; 4.07% under setting [28]; 4.94% under setting [29]. Besides, the viability, T/C by setting is: under setting [30], 62.8%; under setting [31], 51%; under setting [32], 27.2%; under setting [33], 8.24%; under setting [34], 5.11%; under setting [35], 4.13%.
In the case of `Cc1ccccc1N=Nc1ccc(NC(=O)c2ccnn2C)c(C)c1`, for the setting “compound 10 µM”, the viability, T/C was 56.2% [middle of 20 runs].
With `CC1(C)CCC(CN2CCN(c3ccc(C(=O)NS(=O)(=O)c4ccc(NCC5CCOCC5)c([N+](=O)[O-])c4)c(Oc4cnc5[nH]ccc5c4)c3)CC2)=C(c2ccc(Cl)cc2)C1`, the viability, T/C reads like this: (compound 0.0316 µM) 113% and 85.5% and 86.1%; (compound 0.1 µM) 97% and 69.1% and 76.1%; (compound 0.316 µM) 95.7% and 108% and 96.4%; (compound 1 µM) 101% and 68% and 72.1%; (compound 3.16 µM) 92.2% and 38.2% and 39.1%; (compound 10 µM) 85.7% and 14% and 10.1%. Besides, for the setting “curve of compound”, the IC50 was > 10000 nM and 2070 nM and 2200 nM.
In the case of `O=C(C=Cc1cccc(S(=O)(=O)Nc2ccccc2)c1)NO` + CC(CO)NC(=O)c1cc(-c2ccc(Cl)cc2)nn(-c2cnn(C)c2)c1=O, the IC50 came to 230 nM under setting [1]; 278 nM under setting [2]; 258 nM under setting [3]; 262 nM under setting [4]; 163 nM under setting [5]. For the same compound, the viability, T/C was 73.7% (second compound 0.1 µM, first compound 0.0316 µM); 65.4% (second compound 0.1 µM, first compound 0.1 µM); 41.8% (second compound 0.1 µM, first compound 0.316 µM); 27.1% (second compound 0.1 µM, first compound 1 µM); 4.5% (second compound 0.1 µM, first compound 3.16 µM); 0.64% (second compound 0.1 µM, first compound 10 µM). Also, the viability, T/C is 81.9% (second compound 0.316 µM, first compound 0.0316 µM); 65.6% (second compound 0.316 µM, first compound 0.1 µM); 48.6% (second compound 0.316 µM, first compound 0.316 µM); 27.8% (second compound 0.316 µM, first compound 1 µM); 5.91% (second compound 0.316 µM, first compound 3.16 µM); 0.46% (second compound 0.316 µM, first compound 10 µM). Also, the viability, T/C by setting is: (second compound 1 µM, first compound 0.0316 µM) 84.8%; (second compound 1 µM, first compound 0.1 µM) 68.1%; (second compound 1 µM, first compound 0.316 µM) 45.7%; (second compound 1 µM, first compound 1 µM) 25.5%; (second compound 1 µM, first compound 3.16 µM) 5.09%; (second compound 1 µM, first compound 10 µM) 1.14%. In addition, the viability, T/C was 78.9% (second compound 3.16 µM, first compound 0.0316 µM); 63.3% (second compound 3.16 µM, first compound 0.1 µM); 49.7% (second compound 3.16 µM, first compound 0.316 µM); 21.9% (second compound 3.16 µM, first compound 1 µM); 5.78% (second compound 3.16 µM, first compound 3.16 µM); 0.71% (second compound 3.16 µM, first compound 10 µM). Also, the viability, T/C is, setting by setting: (second compound 10 µM, first compound 0.0316 µM) 70.6%; (second compound 10 µM, first compound 0.1 µM) 52.7%; (second compound 10 µM, first compound 0.316 µM) 44.5%; (second compound 10 µM, first compound 1 µM) 20.3%; (second compound 10 µM, first compound 3.16 µM) 5.56%; (second compound 10 µM, first compound 10 µM) 0.44%.
